This is an account of results in patent US9353089B2, “Compositions and methods for the treatment of malaria” (Saint Louis University, priority 2013, dated 2016).

A value given as a limit tells only on which side of the number the result lay.

The subject of the first assay is Plasmodium falciparum 3D7 (CQ-sensitive). The assay is described as follows: In vitro antimalarial assay (malaria SYBR Green I-based fluorescence, MSF), 3D7. Type of assay: cell-based. Conditions: 3D7, 72 h, read-out: 3D7 % inh @ 1 μM. As to the method:
Stock solutions of each test drug were prepared in DMSO at a concentration of 20 mM. The drug solutions were serially diluted with culture medium and distributed to asynchronous parasite cultures on 96-well plates in quadruplicate in a total volume of 100 μL to achieve 0.5% parasitemia with a 2% hematocrit in a total volume of 100 pt. […] After incubation, 100 μL of lysis buffer with 0.2 μL/mL SYBR Green I was added to each well.
Antimalarial potency of compounds was determined by this technique for both Plasmodium falciparum 3D7 (CQ-sensitive) and Dd2 (multi-drug resistant) strains.
Consider `CC(C)COc1cccc(C2(c3cccc(-c4cccnc4)c3)NC(=N)N(C3CCOCC3)C2=O)c1` (centres unmarked) [Example 404, 2-imino-5-(3-isobutoxyphenyl)-5-(3-(pyridin-3-yl)phenyl)-3-(tetrahydro-2H-pyran-4-yl)imidazolidin-4-one], for which the inhibition of growth at 1 µM was 7%.

The same assay, now with this note: 3D7, Table 11, read-out: Pf 3D7 IC50.
Turning to `COc1cccc(C2(c3cccc(-c4ccncc4)c3)NC(=N)N(C3CCCCC3)C2=O)c1` (centres unmarked) [Example 225, 3-cyclohexyl-2-imino-5-(3-methoxy-phenyl)-5-[3-(pyridin-4-yl)phenyl]imidazolidin-4-one], the IC50 came to 318 nM.

As to `Cc1cccc(C2(c3cccc(C)c3)NC(=N)N(C3CCCCC3)C2=O)c1` [Example 237, 3-cyclohexyl-2-imino-5,5-bis(3-methylphenyl)-imidazolidin-4-one], the IC50 came out at 533 nM.

Consider `N=C1NC(c2ccccc2)(c2cccc(Oc3ccccc3)c2)C(=O)N1C1CCCCC1` (centres unmarked) [Example 238, 3-cyclohexyl-2-imino-5-(3-phenoxyphenyl)-5-phenylimidazolidin-4-one], for which the IC50 was 424 nM.

On to `N=C1NC(c2cccc(Cl)c2)(c2cccc(Cl)c2)C(=O)N1C1CCCCC1` [Example 267, 5,5-bis(3-chlorophenyl)-3-cyclohexyl-2-iminoimidazolidin-4-one], for which the IC50 was found to be 1060 nM.

Consider `N=C1NC(c2cccc(-c3cccnc3)c2)(c2cccc(-c3cccnc3)c2)C(=O)N1C1CCCCC1` [Example 269, 3-cyclohexyl-2-imino-5,5-bis[3-(pyridin-3-yl)phenyl]imidazolidin-4-one], for which the IC50 came to 725 nM.

Staying with this assay, now noted: 3D7, Table 13, read-out: 3D7 IC50.
Regarding `COc1ccc(C2(c3ccc(OC)cc3)NC(=N)N(Cc3cccc4ccccc34)C2=O)cc1` [Example 223, 2-imino-5,5-bis(4-methoxyphenyl)-3-(naphthalen-1-ylmethyl)-imidazolidin-4-one], the IC50 stood at 644 nM.

On to `COc1cccc(C2(c3cccc(-c4ccncc4)c3)NC(=N)N(C3CCCCC3)C2=O)c1` (centres unmarked) [Example 225, 3-cyclohexyl-2-imino-5-(3-methoxy-phenyl)-5-[3-(pyridin-4-yl)phenyl]imidazolidin-4-one], for which the IC50 was 318 nM.

In the case of `COc1cccc(C2(c3cccc(-c4ccccn4)c3)NC(=N)N(C3CCCCC3)C2=O)c1` (centres unmarked) [Example 227, 3-cyclohexyl-2-imino-5-(3-methoxyphenyl)-5-[3-(pyridin-2-yl)phenyl]-imidazolidin-4-one], the IC50 was determined as 657 nM.

As for `COc1ccc(C2(c3ccc(OC)cc3)NC(=N)N(Cc3ccccn3)C2=O)cc1` [Example 229, 2-imino-5,5-bis(4-methoxyphenyl)-3-(pyridin-2-ylmethyl)-imidazolidin-4-one], the IC50 came out at 682 nM.

For `COc1cccc(C2(c3cccc(OCc4ccccc4)c3)NC(=N)N(C3CCCCC3)C2=O)c1` (centres unmarked) [Example 230], the IC50 stood at 828 nM.

`COc1ccc(C2(c3ccc(OC)cc3)NC(=N)N(Cc3ccc(C)cc3)C2=O)cc1` [Example 231, 2-imino-5,5-bis(4-methoxyphenyl)-3-[(4-methylphenyl)-methyl]imidazolidin-4-one]: the IC50 is 795 nM.

Take `COc1ccc(C2(c3ccc(OC)cc3)NC(=N)N(Cc3ccc(Cl)cc3)C2=O)cc1` [Example 232, 3-[(4-chlorophenyl)-methyl]-2-imino-5,5-bis(4-methoxyphenyl)-imidazolidin-4-one]: the IC50 came out at 1270 nM.

Turning to `COc1ccc(CN2C(=N)NC(c3ccc(OC)cc3)(c3ccc(OC)cc3)C2=O)cc1` [Example 233, 2-imino-5,5-bis(4-methoxyphenyl)-3-[(4-methoxyphenyl)-methyl]imidazolidin-4-one], the IC50 worked out at 554 nM.

On to `COc1ccc(C2(c3ccc(OC)cc3)NC(=N)N(Cc3ccccc3Cl)C2=O)cc1` [Example 234, 3-[(2-chlorophenyl)-methyl]-2-imino-5,5-bis(4-methoxyphenyl)-imidazolidin-4-one], for which the IC50 is 894 nM.

Consider `COc1ccc(C2(c3ccc(OC)cc3)NC(=N)N(Cc3cccc(Cl)c3)C2=O)cc1` [Example 235, 3-[(3-chlorophenyl)-methyl]-2-imino-5,5-bis(4-methoxyphenyl)-imidazolidin-4-one], for which the IC50 was 684 nM.

For `COc1ccc(C2(c3ccc(OC)cc3)NC(=N)N(Cc3cccc(OC)c3)C2=O)cc1` [Example 236, 2-imino-5,5-bis(4-methoxyphenyl)-3-[(3-methoxyphenyl)-methyl]imidazolidin-4-one], the IC50 worked out at 708 nM.

Regarding `Cc1cccc(C2(c3cccc(C)c3)NC(=N)N(C3CCCCC3)C2=O)c1` [Example 237, 3-cyclohexyl-2-imino-5,5-bis(3-methylphenyl)-imidazolidin-4-one], the IC50 was determined as 533 nM.

As for `N=C1NC(c2ccccc2)(c2cccc(Oc3ccccc3)c2)C(=O)N1C1CCCCC1` (centres unmarked) [Example 238, 3-cyclohexyl-2-imino-5-(3-phenoxyphenyl)-5-phenylimidazolidin-4-one], the IC50 was 424 nM.

Take `COc1ccc(C2(c3ccc(OC)cc3)NC(=N)N(Cc3cccc(C(F)(F)F)c3)C2=O)cc1` [Example 249, 2-imino-5,5-bis(4-methoxyphenyl)-3-{[3-(trifluoromethyl)-phenyl]methyl} imidazolidin-4-one]: the IC50 came to 1520 nM.

`COc1ccc(C2(c3ccc(OC)cc3)NC(=N)N(C3CCN(Cc4ccccc4)CC3)C2=O)cc1` [Example 250, 3-(1-benzylpiperidin-4-yl)-2-imino-5,5-bis(4-methoxyphenyl)-imidazolidin-4-one]: the IC50 worked out at 2740 nM.

For the compound `COc1ccc(C2(c3ccc(OC)cc3)NC(=N)N(Cc3cccc(C)c3)C2=O)cc1` [Example 253, 2-imino-5,5-bis(4-methoxyphenyl)-3-[(3-methylphenyl)-methyl]imidazolidin-4-one], the IC50 amounted to 381 nM.

Turning to `N=C1NC(c2cccc(Cl)c2)(c2cccc(Cl)c2)C(=O)N1C1CCCCC1` [Example 267, 5,5-bis(3-chlorophenyl)-3-cyclohexyl-2-iminoimidazolidin-4-one], the IC50 came to 1060 nM.

As for `N=C1NC(c2cccc(-c3cccnc3)c2)(c2cccc(-c3cccnc3)c2)C(=O)N1C1CCCCC1` [Example 269, 3-cyclohexyl-2-imino-5,5-bis[3-(pyridin-3-yl)phenyl]imidazolidin-4-one], the IC50 is 725 nM.

For `COc1ccc(C2(c3ccc(OC)cc3)NC(=N)N(C3CCC(C)CC3)C2=O)cc1` (centres unmarked) [Example 270, 2-imino-5,5-bis(4-methoxyphenyl)-3-(4-methylcyclohexyl)imidazolidin-4-one], the IC50 came to 724 nM.

As to `COc1ccc(C2(c3ccc(OC)cc3)NC(=N)N(Cc3cc(C)ccc3C)C2=O)cc1` [Example 272, 3-[(2,5-dimethylphenyl)-methyl]-2-imino-5,5-bis(4-methoxyphenyl) imidazolidin-4-one], the 50% inhibitory concentration (IC50) worked out at 976 nM.

On to `CNC(=O)c1cccc(C2(c3ccccc3)NC(=N)N(C3CCCCC3)C2=O)c1` (centres unmarked) [Example 273, 3-(1-cyclohexyl-2-imino-5-oxo-4-phenylimidazolidin-4-yl)-N-methylbenzamide], for which the IC50 was determined as 1380 nM.

Regarding `COc1ccc(C2(c3ccc(OC)cc3)NC(=N)N(Cc3ccccc3F)C2=O)cc1` [Example 306, 3-[(2-fluorophenyl)-methyl]-2-imino-5,5-bis(4-methoxyphenyl)-imidazolidin-4-one], the half-maximal inhibitory concentration (IC50) was found to be 5230 nM.

Take `COc1ccc(C2(c3ccc(OC)cc3)NC(=N)N(Cc3ccccc3Br)C2=O)cc1` [Example 307, 3-[(2-bromophenyl)-methyl]-2-imino-5,5-bis(4-methoxy-phenyl)imidazolidin-4-one]: the half-maximal inhibitory concentration (IC50) stood at 5560 nM.

As for `CC(C)COc1cccc(C2(c3cccc(OCC(C)C)c3)NC(=N)N(C3CCOCC3)C2=O)c1` [Example 389, 2-imino-5,5-bis[3-(2-methylpropoxy)phenyl]-3-(oxan-4-yl)imidazolidin-4-one], the IC50 was above 5000 nM.

Take `CC(C)COc1ccc(C2(c3ccc(OCC(C)C)cc3)NC(=N)N(C3CCOCC3)C2=O)cc1` [Example 390, 2-imino-5,5-bis[4-(2-methylpropoxy)phenyl]-3-(oxan-4-yl)imidazolidin-4-one]: the IC50 was found to be 4080 nM.

Turning to `CC(C)COc1ccc(C2(c3cccc(-c4cccnc4)c3)NC(=N)N(C3CCOCC3)C2=O)cc1` (centres unmarked) [Example 412, 2-imino-5-(4-isobutoxyphenyl)-5-(3-(pyridin-3-yl)phenyl)-3-(tetrahydro-2H-pyran-4-yl)imidazolidin-4-one], the IC50 came out at 4210 nM.

As for `N#Cc1cccc(-c2cccc(C3(c4ccccc4)NC(=N)N(C4CCOCC4)C3=O)c2)c1` (centres unmarked) [Example 413, 3′-(2-imino-5-oxo-4-phenyl-1-(tetrahydro-2H-pyran-4-yl)imidazolidin-4-yl)-[1,1′-biphenyl]-3-carbonitrile], the half-inhibitory concentration (IC50) amounted to 1990 nM.

For `N#Cc1cccc(-c2cccc(C3(C4CC4)NC(=N)N(C4CCOCC4)C3=O)c2)c1` (centres unmarked) [Example 414, 3′-(4-cyclopropyl-2-imino-5-oxo-1-(tetrahydro-2H-pyran-4-yl)imidazolidin-4-yl)-[1,1′-biphenyl]-3-carbonitrile], the IC50 came to 293 nM.

Turning to `N#Cc1cccc(-c2cccc(C3(C4CC4)NC(=N)N(C4CCCCC4)C3=O)c2)c1` (centres unmarked) [Example 486, 3′-(1-cyclohexyl-4-cyclopropyl-2-imino-5-oxoimidazolidin-4-yl)-[1,1′-biphenyl]-3-carbonitrile], the IC50 worked out at 1460 nM.

Take `COc1ccc(C2(C3CC3)NC(=N)N(C3CCOCC3)C2=O)cc1-c1cccnc1` (centres unmarked) [Example 490, 5-cyclopropyl-2-imino-5-(4-methoxy-3-(pyridin-3-yl)phenyl)-3-(tetrahydro-2H-pyran-4-yl)imidazolidin-4-one]: the IC50 was found to be 515 nM.

With `N#Cc1cccc(-c2cccc(C3(C4CCCCC4)NC(=N)N(C4CCOCC4)C3=O)c2)c1` (centres unmarked) [Example 492, 3′-(4-cyclohexyl-2-imino-5-oxo-1-(tetrahydro-2H-pyran-4-yl)imidazolidin-4-yl)-[1,1′-biphenyl]-3-carbonitrile], the IC50 was 1110 nM.

On to `COc1ccc(C2(C3CCCC3)NC(=N)N(C3CCCCC3)C2=O)cc1` (centres unmarked) [Example 493, 3-cyclohexyl-5-cyclopentyl-2-imino-5-(4-methoxyphenyl)imidazolidin-4-one], for which the IC50 worked out at 640 nM.

On to `N=C1NC(c2ccc(OC(F)(F)F)cc2)(C2CC2)C(=O)N1C1CCOCC1` (centres unmarked) [Example 494, 5-cyclopropyl-2-imino-3-(tetrahydro-2H-pyran-4-yl)-5-(4-(trifluoromethoxy)phenyl)imidazolidin-4-one], for which the IC50 turned out to be 680 nM.

On to `N=C1NC(c2cccc(Cl)c2)(C2CC2)C(=O)N1C1CCOCC1` (centres unmarked) [Example 495, 5-(3-chlorophenyl)-5-cyclopropyl-2-imino-3-(tetrahydro-2H-pyran-4-yl)imidazolidin-4-one], for which the IC50 was found to be 930 nM.

On to `N=C1NC(c2ccc(Cl)cc2)(C2CC2)C(=O)N1C1CCOCC1` (centres unmarked) [Example 496, 5-(4-chlorophenyl)-5-cyclopropyl-2-imino-3-(tetrahydro-2H-pyran-4-yl)imidazolidin-4-one], for which the IC50 came out at 350 nM.

In general, IC50 refers to the concentration at which inhibition is half-maximal.
